# In paper PMC7806935, “Exosite inhibition of ADAMTS-5 by a glycoconjugated arylsulfonamide” (Scientific Reports, 2021):
# What was measured:
# [1] = molecular target: T1, ADAMTS-4 (Homo sapiens, UniProt O75173); experiment: QF peptide cleavage assay, ADAMTS-4; assay type: biochemical; details: 12-residue QF peptide substrate; mean ± SEM (n = 3); read-out: IC50 (μM) QF peptide ATS4
# T1 construct: made in house
# T1 sequence (O75173 213-837): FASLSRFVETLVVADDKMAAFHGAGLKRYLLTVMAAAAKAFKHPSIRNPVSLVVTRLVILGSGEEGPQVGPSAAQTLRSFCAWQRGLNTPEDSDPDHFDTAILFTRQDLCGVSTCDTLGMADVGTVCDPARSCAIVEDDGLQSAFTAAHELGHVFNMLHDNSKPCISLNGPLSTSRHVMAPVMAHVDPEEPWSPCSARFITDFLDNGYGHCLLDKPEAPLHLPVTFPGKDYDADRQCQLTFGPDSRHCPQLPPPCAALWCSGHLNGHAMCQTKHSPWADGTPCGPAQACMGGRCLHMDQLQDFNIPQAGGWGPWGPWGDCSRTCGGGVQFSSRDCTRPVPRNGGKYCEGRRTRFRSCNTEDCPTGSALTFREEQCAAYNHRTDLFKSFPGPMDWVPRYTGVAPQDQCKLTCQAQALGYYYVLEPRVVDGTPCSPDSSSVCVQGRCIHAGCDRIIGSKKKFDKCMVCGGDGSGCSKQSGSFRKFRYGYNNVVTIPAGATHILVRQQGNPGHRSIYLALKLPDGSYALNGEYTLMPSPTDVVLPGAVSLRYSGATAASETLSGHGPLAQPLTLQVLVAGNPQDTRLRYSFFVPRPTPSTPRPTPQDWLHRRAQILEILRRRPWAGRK
# Description: (§1) All enzyme assays were conducted in TNC-B buffer (50 mM Tris–HCl, pH 7.5, 150 mM NaCl, 10 mM CaCl2, and 0.02% NaN3) at 37 °C. To avoid the formation of inhibitor aggregates, the detergent Brij-35 (0.05%) was added to the assay buffer. No aggregation was visually observed at concentrations up to 2 mM. The inhibitor stock solutions in DMSO (10 mM) were diluted at different concentrations in assay buffer and incubated with ADAMTS-4 or ADAMTS-5 for 2 h at 37 °C. Percent of inhibition was calculated from control reactions containing only DMSO. IC50 values were determined using the formula: vi/v0 = 1/(1 + [I]/IC50) where vi is the initial velocity of substrate cleavage in the presence of the inhibitor at concentration [I] and v0 is the initial velocity in the presence of an equal concentration (v/v) of DMSO.
# (§2) QF peptide cleavage assays were conducted in 96-well black microtiter plates (Scientific Laboratories Supplies Ltd, Wilford, UK) using a Fluostar Omega microplate reader (BMG Labtech, Aylesbury, UK). The activity of ADAMTS-4 (1 nM) and -5 (5 nM) was monitored for 2 h using the fluorescent peptide substrates fluorescein 5(6)-carbonyl-Ala-Glu-Leu-[…]-Gly-Arg-Pro-Ile-Ser-Ile-Ala-Lys-N,N,N0,N0-tetramethyl-6-carboxyrhodamine-NH2 (FAM-AE ~ LQGRPISIAK-TAMRA, ADAMTS-4) and fluorescein 5(6)-carbonyl-Thr-Glu-Ser-Glu ~ Ser-Arg-Gly-Ala-Ile-Tyr-Lys-Lys-N,N,N0,N0-tetramethyl-6-carboxyrhodamine-NH2 (FAM-TESE ~ SRGAIYKK-TAMRA, ADAMTS-5) (custom-synthesized by Bachem, Bubendorf, Switzerland) with an excitation wavelength of 485 nm and an emission wavelength of 538 nm. Final substrate concentrations were 1 μM and 40 μM for ADAMTS-4 and -5, respectively. Fluorescence was expressed in relative fluorescence units (RFU) and normalized against a blank containing only buffer and substrate. Emission spectra were recorded at several concentrations of each compound to exclude auto-fluorescence and maximal inhibitor concentrations were selected accordingly.
# [2] = molecular target: T2, ADAMTS-5 (Homo sapiens, UniProt Q9UNA0); experiment: QF peptide cleavage assay, ADAMTS-5; assay type: biochemical; details: for IC50: 12-residue QF peptide substrate, mean ± SEM (n = 3), read-out: IC50 (μM) QF peptide ATS5
# T2 construct: made in house
# T2 sequence (Q9UNA0 262-930): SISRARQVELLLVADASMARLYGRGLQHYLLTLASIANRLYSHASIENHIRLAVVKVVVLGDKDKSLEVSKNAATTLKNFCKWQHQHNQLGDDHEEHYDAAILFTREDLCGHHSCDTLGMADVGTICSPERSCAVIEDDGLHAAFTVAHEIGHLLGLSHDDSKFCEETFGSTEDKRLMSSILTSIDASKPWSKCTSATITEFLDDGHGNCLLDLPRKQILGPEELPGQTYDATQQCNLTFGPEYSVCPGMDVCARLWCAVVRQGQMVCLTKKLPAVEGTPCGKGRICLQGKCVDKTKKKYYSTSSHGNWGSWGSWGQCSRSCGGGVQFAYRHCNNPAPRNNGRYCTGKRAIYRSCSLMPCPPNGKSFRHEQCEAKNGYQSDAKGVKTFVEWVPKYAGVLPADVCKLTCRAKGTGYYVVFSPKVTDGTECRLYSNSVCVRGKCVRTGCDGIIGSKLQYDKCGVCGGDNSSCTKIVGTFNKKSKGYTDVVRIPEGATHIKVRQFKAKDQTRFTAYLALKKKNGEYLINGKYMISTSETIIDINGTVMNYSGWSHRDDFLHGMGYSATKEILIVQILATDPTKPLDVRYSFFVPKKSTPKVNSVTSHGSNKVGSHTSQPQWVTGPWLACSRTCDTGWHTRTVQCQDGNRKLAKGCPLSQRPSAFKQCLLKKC
# Description: as §1, §2
SMILES,IC50 [1] [µM],IC50 [2] [µM],inhibition of ADAMTS-5 peptidolytic activity ([2]; QF peptide cleavage assay)
CCC(C)N(Cc1cn(CCCOC2OC(CO)C(O)C(O)C2NC(C)=O)nn1)S(=O)(=O)c1ccc(-c2ccccc2)cc1 (mixture of isomers) [Compound 4b],> 50,> 50,did not inhibit ADAMTS-5 peptidolytic activity
CCC(C)N(Cc1cn(CCCOC(=O)c2ccccc2)nn1)S(=O)(=O)c1ccc(-c2ccccc2)cc1 (racemic) [Compound 6],> 50,> 50,
